Test results reported in ChEMBL document CHEMBL1156118, “Evaluation of substituted 6-arylquinazolin-4-amines as potent and selective inhibitors of cdc2-like kinases (Clk)” (Bioorg Med Chem Lett, 2009).

Legend:
[1] = biological target: T1, Dual specificity protein kinase CLK4 (Homo sapiens, UniProt Q9HAZ1); assay: Inhibition of Clk4
[2] = biological target: Dual specificity protein kinase CLK3 (Homo sapiens, UniProt P49761); assay: Binding affinity to Clk3 assessed as dissociation constant
[3] = biological target: Dual specificity tyrosine-phosphorylation-regulated kinase 1B (Homo sapiens, UniProt Q9Y463); assay: Binding affinity to Dyrk1B assessed as dissociation constant
Chain of Dual specificity tyrosine-phosphorylation-regulated kinase 1B (Q9Y463 whole entry): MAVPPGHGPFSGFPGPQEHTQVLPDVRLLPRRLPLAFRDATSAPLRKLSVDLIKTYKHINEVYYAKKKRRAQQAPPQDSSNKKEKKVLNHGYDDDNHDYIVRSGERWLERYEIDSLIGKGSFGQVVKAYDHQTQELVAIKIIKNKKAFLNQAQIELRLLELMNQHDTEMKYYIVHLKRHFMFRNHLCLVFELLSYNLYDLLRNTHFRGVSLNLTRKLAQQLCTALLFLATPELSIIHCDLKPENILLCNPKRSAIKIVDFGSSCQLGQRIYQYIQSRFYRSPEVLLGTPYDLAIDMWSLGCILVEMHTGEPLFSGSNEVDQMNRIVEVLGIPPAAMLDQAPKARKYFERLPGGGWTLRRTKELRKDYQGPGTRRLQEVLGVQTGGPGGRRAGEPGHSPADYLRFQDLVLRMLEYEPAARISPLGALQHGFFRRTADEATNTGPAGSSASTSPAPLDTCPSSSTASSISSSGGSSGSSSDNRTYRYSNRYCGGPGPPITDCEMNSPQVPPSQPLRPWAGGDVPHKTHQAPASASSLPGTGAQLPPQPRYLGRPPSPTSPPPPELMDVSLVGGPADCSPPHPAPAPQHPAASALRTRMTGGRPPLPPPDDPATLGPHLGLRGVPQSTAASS

[4] = biological target: Epidermal growth factor receptor (Homo sapiens, UniProt P00533); assay: Binding affinity to EGFR assessed as dissociation constant
Chain of Epidermal growth factor receptor (P00533 whole entry): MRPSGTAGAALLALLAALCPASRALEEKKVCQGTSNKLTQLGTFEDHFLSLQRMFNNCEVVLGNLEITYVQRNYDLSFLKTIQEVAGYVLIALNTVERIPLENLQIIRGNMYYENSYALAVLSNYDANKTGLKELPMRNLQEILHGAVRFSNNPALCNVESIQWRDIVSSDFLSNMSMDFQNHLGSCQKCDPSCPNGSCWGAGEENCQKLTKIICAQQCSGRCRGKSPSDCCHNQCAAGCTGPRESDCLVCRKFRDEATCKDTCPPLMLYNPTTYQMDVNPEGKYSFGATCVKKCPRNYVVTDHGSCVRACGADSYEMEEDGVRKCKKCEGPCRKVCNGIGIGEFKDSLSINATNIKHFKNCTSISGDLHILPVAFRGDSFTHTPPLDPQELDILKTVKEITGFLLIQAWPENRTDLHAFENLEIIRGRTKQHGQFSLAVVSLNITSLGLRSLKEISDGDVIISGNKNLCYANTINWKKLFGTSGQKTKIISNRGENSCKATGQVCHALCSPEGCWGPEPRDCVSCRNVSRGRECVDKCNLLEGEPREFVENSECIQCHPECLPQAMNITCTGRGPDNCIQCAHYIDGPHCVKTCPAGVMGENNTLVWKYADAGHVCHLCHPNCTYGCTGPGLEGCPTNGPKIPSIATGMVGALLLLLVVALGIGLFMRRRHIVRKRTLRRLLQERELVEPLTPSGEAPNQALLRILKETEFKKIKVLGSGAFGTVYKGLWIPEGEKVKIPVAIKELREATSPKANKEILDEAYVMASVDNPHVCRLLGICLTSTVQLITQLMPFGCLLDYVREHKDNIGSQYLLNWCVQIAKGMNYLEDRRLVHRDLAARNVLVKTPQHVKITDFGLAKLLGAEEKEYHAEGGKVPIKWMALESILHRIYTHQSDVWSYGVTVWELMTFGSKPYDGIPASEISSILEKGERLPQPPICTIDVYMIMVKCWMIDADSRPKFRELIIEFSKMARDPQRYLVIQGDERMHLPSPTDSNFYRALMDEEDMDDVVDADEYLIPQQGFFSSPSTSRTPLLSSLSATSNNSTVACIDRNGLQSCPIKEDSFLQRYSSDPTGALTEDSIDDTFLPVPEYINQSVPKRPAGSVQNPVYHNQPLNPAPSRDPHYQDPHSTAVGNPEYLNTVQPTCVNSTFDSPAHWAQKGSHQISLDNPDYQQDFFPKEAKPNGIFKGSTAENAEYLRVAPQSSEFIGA

[5] = biological target: Dual specificity protein kinase CLK1 (Homo sapiens, UniProt P49759); assay: Binding affinity to Clk1 assessed as dissociation constant
Chain of Dual specificity protein kinase CLK1 (P49759 whole entry): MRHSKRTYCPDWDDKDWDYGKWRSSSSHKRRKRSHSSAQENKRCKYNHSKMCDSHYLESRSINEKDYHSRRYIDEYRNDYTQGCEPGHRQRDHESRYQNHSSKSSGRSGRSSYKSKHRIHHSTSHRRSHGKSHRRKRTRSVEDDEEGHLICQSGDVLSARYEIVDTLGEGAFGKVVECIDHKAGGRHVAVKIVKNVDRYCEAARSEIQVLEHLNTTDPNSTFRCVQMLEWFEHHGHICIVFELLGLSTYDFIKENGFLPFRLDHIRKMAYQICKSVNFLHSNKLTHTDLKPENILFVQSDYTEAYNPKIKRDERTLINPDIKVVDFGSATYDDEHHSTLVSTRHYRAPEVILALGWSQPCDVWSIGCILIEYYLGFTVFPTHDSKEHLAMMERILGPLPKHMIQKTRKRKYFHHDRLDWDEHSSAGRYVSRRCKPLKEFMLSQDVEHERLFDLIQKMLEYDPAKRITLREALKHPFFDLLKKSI

[6] = biological target: T1, Dual specificity protein kinase CLK4; assay: Binding affinity to Clk4 assessed as dissociation constant
[7] = biological target: Dual specificity tyrosine-phosphorylation-regulated kinase 1A (Homo sapiens, UniProt Q13627); assay: Binding affinity to Dyrk1A assessed as dissociation constant
[8] = biological target: Dual specificity protein kinase CLK2 (Homo sapiens, UniProt P49760); assay: Binding affinity to Clk2 assessed as dissociation constant
Chain of Dual specificity protein kinase CLK2 (P49760 whole entry): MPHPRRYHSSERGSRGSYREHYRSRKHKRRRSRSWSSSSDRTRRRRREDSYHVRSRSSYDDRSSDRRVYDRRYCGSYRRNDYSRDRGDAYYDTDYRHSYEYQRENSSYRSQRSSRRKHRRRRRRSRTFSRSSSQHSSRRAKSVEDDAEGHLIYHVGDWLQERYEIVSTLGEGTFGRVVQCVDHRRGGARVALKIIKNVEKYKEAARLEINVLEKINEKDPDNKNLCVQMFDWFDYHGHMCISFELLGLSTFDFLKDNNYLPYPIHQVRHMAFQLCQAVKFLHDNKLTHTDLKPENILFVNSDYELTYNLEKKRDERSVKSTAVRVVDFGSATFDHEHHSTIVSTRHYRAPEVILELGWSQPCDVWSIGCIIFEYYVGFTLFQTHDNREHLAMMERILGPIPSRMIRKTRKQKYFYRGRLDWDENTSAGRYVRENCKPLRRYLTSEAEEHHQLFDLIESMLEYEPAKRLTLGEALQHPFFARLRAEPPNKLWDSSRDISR

T1 sequence (Q9HAZ1 whole entry): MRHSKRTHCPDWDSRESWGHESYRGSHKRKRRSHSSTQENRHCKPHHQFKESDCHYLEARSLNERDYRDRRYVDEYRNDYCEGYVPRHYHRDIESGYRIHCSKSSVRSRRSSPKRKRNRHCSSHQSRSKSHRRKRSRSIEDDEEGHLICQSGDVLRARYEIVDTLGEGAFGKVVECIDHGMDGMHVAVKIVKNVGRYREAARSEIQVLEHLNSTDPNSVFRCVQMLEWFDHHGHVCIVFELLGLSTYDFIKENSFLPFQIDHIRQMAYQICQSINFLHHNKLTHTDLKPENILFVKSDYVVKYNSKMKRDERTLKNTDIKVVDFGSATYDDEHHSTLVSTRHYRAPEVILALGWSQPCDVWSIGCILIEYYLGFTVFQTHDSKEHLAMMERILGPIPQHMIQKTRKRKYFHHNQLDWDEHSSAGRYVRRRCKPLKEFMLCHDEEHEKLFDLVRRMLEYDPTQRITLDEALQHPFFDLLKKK
Chain of Dual specificity protein kinase CLK3 (P49761 whole entry): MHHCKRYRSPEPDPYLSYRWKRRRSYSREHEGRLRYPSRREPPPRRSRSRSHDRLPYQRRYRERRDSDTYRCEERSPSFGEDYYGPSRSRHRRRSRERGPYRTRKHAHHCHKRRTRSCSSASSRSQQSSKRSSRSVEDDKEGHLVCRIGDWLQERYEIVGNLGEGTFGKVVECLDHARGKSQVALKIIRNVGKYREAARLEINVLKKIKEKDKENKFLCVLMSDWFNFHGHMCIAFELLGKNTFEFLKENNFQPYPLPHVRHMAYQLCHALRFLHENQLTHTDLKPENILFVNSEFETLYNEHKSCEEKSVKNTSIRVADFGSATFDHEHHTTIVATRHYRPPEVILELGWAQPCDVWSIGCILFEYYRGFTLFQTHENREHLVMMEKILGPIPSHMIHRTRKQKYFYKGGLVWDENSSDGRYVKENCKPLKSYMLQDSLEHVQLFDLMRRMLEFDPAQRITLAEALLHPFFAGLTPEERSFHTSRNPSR

Structure (SMILES) | IC50 [1] [nM] | other results
COc1cccc(-c2ccc3ncnc(NCc4cccs4)c3c2)c1 | 891 | –
Cc1cccc(CNc2ncnc3ccc(-c4ccc5c(c4)OCO5)cc23)c1 | 126 | –
Cc1csc(CNc2ncnc3ccc(-c4ccc5c(c4)OCO5)cc23)c1 | 178 | –
c1coc(-c2ccc3ncnc(NCc4cccs4)c3c2)c1 | 250 | –
Cc1cccc(CNc2ncnc3ccc(-c4ccc5c(c4)OCCO5)cc23)c1 | 631 | –
Cc1noc(C)c1-c1ccc2ncnc(NCc3cccc(F)c3)c2c1 | 178 | –
COc1cccc(-c2ccc3ncnc(NCc4cccc(C)c4)c3c2)c1 | 1120 | –
COc1cccc(-c2ccc3ncnc(NCc4cc(C)cs4)c3c2)c1 | 1000 | –
c1cncc(CNc2ncnc3ccc(-c4ccc5c(c4)OCO5)cc23)c1 | 100 | –
Fc1cccc(CNc2ncnc3ccc(-c4ccc5c(c4)OCO5)cc23)c1 | 126 | –
COc1cccc(-c2ccc3ncnc(NCc4cccnc4)c3c2)c1 | 3550 | –
c1nc(NCc2ccoc2)c2cc(-c3ccc4c(c3)OCO4)ccc2n1 | 63 | –
Fc1cccc(CNc2ncnc3ccc(-c4ccco4)cc23)c1 | 141 | –
c1csc(CNc2ncnc3ccc(-c4ccc5c(c4)OCO5)cc23)c1 | 63 | Kd [2]: 470 nM; Kd [3]: 430 nM; Kd [4]: 230 nM; Kd [5]: 37 nM; Kd [6]: 50 nM; Kd [7]: 27 nM; Kd [8]: 680 nM
c1cncc(CNc2ncnc3ccc(-c4ccco4)cc23)c1 | 794 | –
COc1cccc(-c2ccc3ncnc(NCc4cccc(F)c4)c3c2)c1 | 708 | –
Cc1noc(C)c1-c1ccc2ncnc(NCc3cccs3)c2c1 | 158 | –
c1cncc(CNc2ncnc3ccc(-c4ccc5c(c4)OCCO5)cc23)c1 | 447 | –
Cc1csc(CNc2ncnc3ccc(-c4ccc5c(c4)OCCO5)cc23)c1 | 501 | –
Cc1cccc(CNc2ncnc3ccc(-c4ccco4)cc23)c1 | 224 | –
c1coc(-c2ccc3ncnc(NCc4ccoc4)c3c2)c1 | 111 | –
COc1cccc(-c2ccc3ncnc(NCc4ccoc4)c3c2)c1 | 1000 | –
Cc1csc(CNc2ncnc3ccc(-c4c(C)noc4C)cc23)c1 | 501 | –
